From patent US20150037399A1, “NOVEL USE OF PIPOXOLAN AND ITS PHARMACEUTICAL COMPOSITION” (China Medical University, priority 2013, published 2015)

Assays:
[1] = test system: p-ERK; assay: Western blot of p-ERK in PDGF-BB-stimulated VSMCs; format: cell-based
Description: (§1) The role of matrix metalloproteinase-2/9 (MMP-2/9) and the Ras/MEK/ERK signaling pathways were used to evaluate the effect of pipoxolan on VSMCs migration. The protein expression levels were determined by Western blot analysis. Each vertical bars represented mean±S.E. **p<0.01 and ***p<0.001 compared with control group (n=6 in each group).

[2] = test system: MEK; assay: Western blot of MEK in PDGF-BB-stimulated VSMCs; format: cell-based
Description: as §1

[3] = test system: neurological deficits in ischemic rats; assay: Evaluation of neurological deficits after ischemia-reperfusion; format: in vivo, Sprague-Dawley (SD) rats; settings: 24 hr after reperfusion; for neurological deficits (score 0-5): mean±SE
Description: Focal ischemia was induced by occlusion of both common carotid arteries (CCA) and the right middle cerebral artery (MCA). Eighteen rats were randomly assigned to 3 treatment groups, six rats for each group. Group 1 rats were treated with saline and groups 2 and 3 treated with pipoxolan (10 mg/kg and 30 mg/kg, respectively). Rats were fasted overnight with free access to water. Pipoxolan (10, 30 mg/kg) was orally administered 1 hr prior to transient focal cerebral ischemia-reperfusion. Animals then were anesthetized with zoletil® (25 mg/kg i.p.), and the skull was exposed, and a small burr hole was produced over the MCA. Beneath the right MCA, proximal to the major bifurcation of the right MCA, distal to the lenticulostriate arteries, and rostral to the rhinal fissure, a 10-0 nylon monofilament was placed. The artery then was lifted and the nylon filament rotated clockwise. Both CCA were then occluded using a microvascular clip. After 90 minutes of occlusion, reperfusion was established by removing the microvascular clips from the CCA, rotating the nylon monofilament counterclockwise and removing it from beneath the MCA. After 24 hr, all rats were alive and neurobehavioral deficits evaluation and infarct assessment were performed Twenty four hours following reperfusion, neurological function of rats was assessed. The degree of neurological deficits were divided 0-5 (higher score is for more severe neurological deficits) as follows: 0=no neurological deficits, 1=failure to extend left forepaw fully, 2=circling to the left, 3=falling to left, 4=no spontaneous walking with a depressed level of consciousness, and 5=death. Neurological evaluation was done by an observer who was blind to the treatment conditions of the animals. After completion of the neurobehavioral evaluation, rats were deeply anesthetized by an intraperitoneal injection of zoletil® (50 mg/kg) followed by intracardiac perfusion with 200 ml of freezing PBS and animals were then decapitated. The brain was removed and sliced in 2-mm sections using a rodent brain matrix slicer. The sections were stained with 2% 2,3,5-triphenyltetrazoliumchloride (TTC) for 10 min at 37° C. and fixed in 10% formalin. The image of each section was digitized and the infarct area was determined morphometrically using Image-Pro Plus 6.0 (Media Cybernetics, Md., USA).

[4] = test system: carotid-ligation induced intimal hyperplasia; assay: Carotid ligation model, intima/media ratio (hematoxylin-eosin staining); format: in vivo, ICR mice; settings: mice, vs control group
Description: Male ICR mice, weighing 20 to 25 g, were used as a carotidligation model. Fifteen mice were randomly assigned to 3 treatment groups, five mice for each group. All mice were fasted overnight with free access to water, then anesthetized with zoletil® (25 mg/kg i.p.). Carotid ligation was performed by a midline neck incision and the left common carotid artery exposed. The carotid artery was completely ligated just proximal to the carotid bifurcation, and the right carotid artery served as a non-injured control artery. The incision was closed after ligation, and the animals were allowed to recover. On the day of carotid ligation, mice were randomized into 3 treatment groups and anesthetized as described. Group 1 mice were treated with saline and groups 2 and 3 treated with pipoxolan (10 mg/kg and 30 mg/kg, respectively). Subsequent pipoxolan and saline treatments were given by gastric gavage on the second day after carotid ligation and once daily for 28 days. […] Images were digitized and analyzed with Image-Pro software. The areas of the lumen, internal elastic lamina (IEL), and external elastic lamina (EEL) were determined by computerized planimetry. The intima area was calculated by subtracting the luminal from the IEL area, and media area was determined by subtracting the IEL area from the EEL area. The ratio of intima to media area (I/M ratio) was calculated and analyzed. […]

[5] = test system: TUNEL positive cells; assay: TUNEL assay in cortex of ischemic rats; format: in vivo, Sprague-Dawley (SD) rats; settings: rat cortex, 24 hr after focal ischemia
Description: (§2) Nine rats were randomly assigned into 3 treatment groups, three rats for each group. Group 1 rats were treated with saline and groups 2 and 3 treated with pipoxolan (10 mg/kg and 30 mg/kg, respectively). Focal ischemia was induced by occlusion of both CCA and the right MCA as previously described. Twenty four hours after focal ischemia, rats were deeply anesthetized by intraperitoneal injection of 50 mg/kg of zoletil® followed by intracardiac perfusion with 200 ml of 0.9% saline, followed by 4% paraformaldehyde in 0.1 M PBS and animals were decapitated. The percentage of positive TUNEL staining cells within areas of the cortex was estimated.

[6] = test system: Ras; assay: Western blot of Ras in PDGF-BB-stimulated VSMCs; format: cell-based
Description: as §1

[7] = test system: cleaved caspase-3 positive cells; assay: Immunohistochemical staining of cleaved caspase-3 in rat brain slices; format: in vivo, Sprague-Dawley (SD) rats; settings: rat cortex
Description: as §2, with “estimated. Rat brain slices were incubated with anti-caspase-3 antibodies (GTX73093, GeneTex Inc., USA) overnight and immunohistochemical labeled using a NovoLink Polymer Detection System Kit (Leica Microsystems Inc., Newcastle Upon Tyne, UK). The percentage of positive caspase-3 staining cells within the cortex was estimated based on the average number of cells in a defined area.” for “estimated.”

[8] = test system: MMP-9; assay: Western blot of MMP-9 in PDGF-BB-stimulated VSMCs; format: cell-based; settings: Rattus norvegicus, VSMC, read-out: inhibition of MMP-9 level
Description: as §1

Cl.O=C1OC(CCN2CCCCC2)OC1(c1ccccc1)c1ccccc1 (stereo not shown) [pipoxolan, 5,5-diphenyl-2-(2-piperidin-1-ylethyl)-1,3-dioxolan-4-one hydrochloride]
reduction of p-ERK protein level ([1]; 5 μM): 50.33%
reduction of p-ERK protein level ([1]; 10 μM): 51.67%
reduction of p-ERK protein level ([1]; 15 μM): 75%
reduction of MEK protein level ([2]; 5 μM): 21.67%
reduction of MEK protein level ([2]; 10 μM): 21%
reduction of MEK protein level ([2]; 15 μM): 26.67%
reduction of neurological deficits ([3]; 10 mg/kg p.o.): 31.25%
neurological deficits (score 0-5) ([3]; 10 mg/kg p.o.): 2.20±0.20
reduction of neurological deficits ([3]; 30 mg/kg p.o.): 46.88%
neurological deficits (score 0-5) ([3]; 30 mg/kg p.o.): 1.7±0.21
percent reduction of I/M ratio (intima/media) ([4]; 10 mg/kg p.o. once daily for 28 days after carotid ligation): 24.21%
percent reduction of I/M ratio (intima/media) ([4]; 30 mg/kg p.o. once daily for 28 days after carotid ligation): 47.20%
percent reduction of TUNEL positive cells ([5]; 10 mg/kg): 31.25%
percent reduction of TUNEL positive cells ([5]; 30 mg/kg): 46.88%
reduction of Ras protein level ([6]; 5 μM): 21%
reduction of Ras protein level ([6]; 10 μM): 24.75%
reduction of Ras protein level ([6]; 15 μM): 24%
reduction of cleaved caspase 3 positive cells ([7]; 10 mg/kg): 37.18%
reduction of cleaved caspase 3 positive cells ([7]; 30 mg/kg): 63.44%
inhibition at 5 µM ([8]; 5 μM): 39.4%
inhibition at 10 µM ([8]; 10 μM): 45.4%
inhibition at 15 µM ([8]; 15 μM): 36.6%
